# According to the supplement of paper PMC10702517:
# ± gives the standard deviation.
# Tests used:
# [1] = chemical recovery from spiked human plasma; higher = better extraction; settings: pooled human plasma
# [2] = chemical recovery into PDMS from spiked human plasma; higher = better extraction; settings: pooled human plasma, extraction method: PES with PDMS
# [3] = chemical recovery by SPE of plasma after PDMS sampling; higher = better extraction; settings: pooled human plasma, extraction method: HLB SPE of plasma after PES
# [4] = extraction method: PES+SPE (3 d PDMS equilibration then HLB SPE)
# [5] = extraction method: SPE only (HLB 96-well)
# [6] = extraction method: SPE only (HLB 96-well), PES comparison experiment
# [7] = extraction method: solvent precipitation (ACN + hexane)
# 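For chemical recovery by SPE of plasma after PDMS sampling in this document: over 400 spiked chemicals quantified by LC-HRMS or GC-HRMS via internal standard calibration, recovery relative to spike mix added to unspiked plasma extract to correct matrix effects.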
SMILES,"chemical recovery [1, 4]","chemical recovery [1, 5]","chemical recovery [1, 6]","chemical recovery [1, 7]",chemical recovery into PDMS ([2]; equilibration time (d): 1),chemical recovery into PDMS ([2]; equilibration time (d): 3),chemical recovery into PDMS ([2]; equilibration time (d): 6),chemical recovery by SPE of plasma ([3]; equilibration time (d): 1),chemical recovery by SPE of plasma ([3]; equilibration time (d): 3),chemical recovery by SPE of plasma ([3]; equilibration time (d): 6)
"NC(=O)Nc1ccc(Cl)c(Cl)c1 [3,4-Dichlorophenylurea]",56.4 ± 2.7%,43.9 ± 3.2%,49.3 ± 6.2%,71.8 ± 3.8%,0.856 ± 1.5%,4.96 ± 0.6%,5.93 ± 0.81%,40.1 ± 4.3%,40.9 ± 3%,36.5 ± 1.1%
"ClC=C(c1ccc(Cl)cc1)c1ccc(Cl)cc1 [4,4-DDMU]",,,,,,67.8 ± 4.7%,62.3 ± 4.6%,11.4 ± 8%,12 ± 2.1%,11.5 ± 4.2%
C[C@]12CCC(=O)C=C1CC[C@@H]1[C@@H]2CC[C@@]2(C)[C@H]1CC[C@]2(C)O [17alpha-Methyltestosterone],,,,,34.6 ± 2.1%,36.4 ± 2.9%,37.6 ± 0.76%,7.99 ± 6.9%,12.4 ± 1.8%,7.08 ± 1.2%
CC(C1CC1)C(O)(Cn1cncn1)c1ccc(Cl)cc1 (centres undefined) [Cyproconazole],,,,,37.7 ± 1.8%,41.6 ± 3.6%,41 ± 0.84%,2.91 ± 0.36%,2.32 ± 0.46%,1.25 ± 0.088%
CO/N=C(/C1=NOCCO1)c1ccccc1Oc1ncnc(Oc2ccccc2Cl)c1F [Fluoxastrobin],,,,,45.4 ± 3.9%,50.3 ± 4.7%,47.2 ± 5.7%,0.73 ± 1.3%,0.629 ± 1.1%,0.277 ± 0.48%
ClC1=C(Cl)C2(Cl)C3C4OC4C(Cl)C3C1(Cl)C2(Cl)Cl (centres undefined) [Heptachlorepoxide],,,,,,99.4 ± 13%,,1.72 ± 1.8%,2.34 ± 0.82%,1.89 ± 0.21%
"c1ccc2c(c1)=c1ccc3c4c(ccc=2c14)=c1ccccc1=3 [Indeno(1,2,3-cd)fluoranthene]",,,,,70.5 ± 4%,79.7 ± 9.8%,77.5 ± 5.2%,,,0.409 ± 0.71%
CC(=O)O[C@]1(C(C)=O)CC[C@H]2[C@@H]3C[C@H](C)C4=CC(=O)CC[C@]4(C)[C@H]3CC[C@@]21C [Medroxyprogesteroneacetate],,,44.5 ± 8.6%,,41.5 ± 4.3%,46.8 ± 1.9%,43.4 ± 1.5%,,,
CN(C)C(=N)NC(=N)N [Metformin],1.5 ± 0.32%,2.12 ± 0.71%,,83.3 ± 12%,,,0.002 ± 0.0035%,,,
C[C@@H]1C[C@H]2[C@@H]3CCC4=CC(=O)C=C[C@]4(C)[C@@]3(Cl)[C@@H](O)C[C@]2(C)[C@@]1(OC(=O)c1ccco1)C(=O)CCl [Mometasone fuorate],,,32.8 ± 7.8%,,22.4 ± 3%,29.4 ± 3.4%,32.6 ± 2.6%,,,
"CCCCCCCCCCN(C)C [N,N-Dimethyldecylamine]",,,39.4 ± 7.1%,,,,0.000993 ± 0.0017%,,,
CCCCC(CC)COC(=O)C(C#N)=C(c1ccccc1)c1ccccc1 (centres undefined) [Octocrylene],73.7 ± 6%,2.21 ± 0.76%,,59.8 ± 6.2%,62.5 ± 6.4%,65.5 ± 8%,65.4 ± 1.9%,,,
CC(C)Oc1cc(-n2nc(C(C)(C)C)oc2=O)c(Cl)cc1Cl [Oxadiazone],,43.6 ± 4.8%,34.7 ± 5.2%,,39.1 ± 3.5%,40.4 ± 3.1%,37.8 ± 2.7%,,,
O=C(O)C(F)(F)C(F)(F)C(F)(F)C(F)(F)C(F)(F)C(F)(F)F [Perfluoroheptanoic acid],34.1 ± 2.9%,27.1 ± 4.2%,39.8 ± 8.7%,85.3 ± 16%,0.0266 ± 0.023%,0.00647 ± 0.017%,0.0383 ± 0.0028%,,,
O=C(Nc1ccc(F)cc1)c1cccc(Oc2cccc(C(F)(F)F)c2)n1 [Picolinafen],,49.3 ± 14%,28.9 ± 6%,69.8 ± 6%,50.6 ± 4.7%,54.1 ± 5.5%,50.4 ± 4.1%,,,
CC(=O)[C@H]1CC[C@H]2[C@@H]3CCC4=CC(=O)CC[C@]4(C)[C@H]3CC[C@]12C [Progesterone],,,45.7 ± 9.4%,,47.3 ± 3.5%,50.6 ± 4.3%,48.2 ± 0.51%,,,
COC(=O)N(OC)c1ccccc1COc1ccn(-c2ccc(Cl)cc2)n1 [Pyraclostrobin],71.5 ± 8.6%,48 ± 6.1%,36.9 ± 5%,,46.4 ± 5.7%,47.9 ± 3.8%,46.6 ± 3.3%,,,

SMILES,"chemical recovery [1, 4]","chemical recovery [1, 5]","chemical recovery [1, 6]","chemical recovery [1, 7]",chemical recovery into PDMS ([2]; equilibration time (d): 1),chemical recovery into PDMS ([2]; equilibration time (d): 3),chemical recovery into PDMS ([2]; equilibration time (d): 6),chemical recovery by SPE of plasma ([3]; equilibration time (d): 1),chemical recovery by SPE of plasma ([3]; equilibration time (d): 3),chemical recovery by SPE of plasma ([3]; equilibration time (d): 6)
CCOC(=O)c1cn2nc(OP(=S)(OCC)OCC)cc2nc1C [Pyrazophos],55.7 ± 7.8%,43 ± 3.4%,40.2 ± 7.4%,,39.1 ± 4.4%,40.5 ± 2.3%,40.1 ± 2.1%,,,
CC(C)(C)c1ccc(CSc2cnn(C(C)(C)C)c(=O)c2Cl)cc1 [Pyridaben],,7.91 ± 1.1%,,,50.4 ± 7.5%,49.7 ± 3.6%,49.4 ± 2.4%,,,
CC(COc1ccc(Oc2ccccc2)cc1)Oc1ccccn1 (centres undefined) [Pyriproxyfen],,39.7 ± 12%,23 ± 4.6%,,48.2 ± 4.8%,50.9 ± 6.1%,49.3 ± 2.8%,,,
C=CC[C@@H]1/C=C(\C)C[C@H](C)C[C@H](OC)[C@H]2O[C@@](O)(C(=O)C(=O)N3CCCC[C@H]3C(=O)O[C@H](/C(C)=C/[C@@H]3CC[C@@H](O)[C@H](OC)C3)[C@H](C)[C@@H](O)CC1=O)[C@H](C)C[C@@H]2OC [Tacrolimus],,,,,23.3 ± 2.5%,27.6 ± 2.7%,30.5 ± 2.2%,5.46 ± 2.7%,1.87 ± 3.2%,
CC1(C)[C@H](C=C(Cl)Cl)[C@H]1C(=O)OCc1c(F)c(F)cc(F)c1F [Transfluthrin],,0.85 ± 0.086%,13.8 ± 3.7%,31.9 ± 2.4%,79.7 ± 14%,113 ± 37%,92.7 ± 12%,,,
CC(C)COP(=O)(OCC(C)C)OCC(C)C [Tri-isobutylphosphate],,,31.3 ± 5.5%,,37.6 ± 1.3%,39.9 ± 4.4%,39.9 ± 2.7%,,,
CC(C)(C)C(O)C(Oc1ccc(Cl)cc1)n1cncn1 (centres undefined) [Triadimenol],,,47.4 ± 7.7%,68.9 ± 3.2%,39.4 ± 1.5%,43.5 ± 3.8%,43.6 ± 0.11%,,,
CC(C)N(C(=O)SCC(Cl)=C(Cl)Cl)C(C)C [Triallate],,16.3 ± 5%,22.8 ± 6.1%,76.8 ± 11%,29 ± 1.7%,32.2 ± 4%,29.8 ± 1.9%,,,
COc1cc(Cl)ccc1Oc1ccc(Cl)cc1Cl [Triclosan-methyl],,0.483 ± 0.13%,12.2 ± 2.8%,22.2 ± 1.1%,,,84.6 ± 26%,,,
Cc1ccc(OP(=O)(Oc2ccc(C)cc2)Oc2ccc(C)cc2)cc1 [Tricresylphosphate],,44.8 ± 12%,25.4 ± 4.9%,,54.2 ± 6.3%,56.1 ± 5.2%,54 ± 3.2%,,,
CO/N=C(/C(=O)OC)c1ccccc1CO/N=C(\C)c1cccc(C(F)(F)F)c1 [Trifloxystrobin],,48 ± 6.8%,45.4 ± 8.7%,,47.2 ± 4.1%,47.8 ± 5.8%,47.3 ± 3.1%,,,
O=P(Oc1ccccc1)(Oc1ccccc1)Oc1ccccc1 [Triphenylphosphate],,57.9 ± 4.8%,41.3 ± 5.6%,88.1 ± 6.6%,41.3 ± 4.4%,43.5 ± 3.7%,42 ± 2.9%,,,
Cl[C@H]1[C@H](Cl)[C@@H](Cl)[C@H](Cl)[C@H](Cl)[C@H]1Cl [alpha-HCH],,,25.5 ± 5.6%,,56.7 ± 14%,69.9 ± 18%,66.1 ± 14%,,,
O=S1OC[C@@H]2[C@H](CO1)[C@]1(Cl)C(Cl)=C(Cl)[C@]2(Cl)C1(Cl)Cl (stereo partly drawn) [beta-Endosulfan],,3.92 ± 1.1%,15.9 ± 3.6%,17.7 ± 8.9%,60.6 ± 7.8%,77.8 ± 18%,80.6 ± 18%,,,
Cl[C@H]1[C@H](Cl)[C@@H](Cl)[C@H](Cl)[C@@H](Cl)[C@@H]1Cl [beta-HCH],192 ± 11%,,26.6 ± 2.1%,33.3 ± 5.6%,,80.5 ± 10%,77.1 ± 5.9%,,,
Cl[C@H]1[C@H](Cl)[C@@H](Cl)[C@@H](Cl)[C@H](Cl)[C@H]1Cl [gamma-HCH],,,9.76 ± 0.99%,26.2 ± 8.1%,,57.4 ± 18%,58.6 ± 18%,,,
